Assay results published in ChEMBL document CHEMBL1201862, “PubChem BioAssay data set” (2004).
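Grown in 96-well plates, cells were treated for 48 hours with each compound at five concentrations. Insufficient inhibition: endpoint recorded as highest concentration tested. At the GI50, growth is halved.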 Calls of active or inactive are those of the source. Rule as the data show it: active = GI50 up to about 1.1 µM and inactive = higher.

How the values were obtained:
Assay in all cases: inhibition of tumour cell growth, NCI panel, 48 h
SNB-19 = tested on: SNB-19
UACC-257 = tested on: UACC-257
RPMI-8226 = tested on: RPMI-8226
SW-620 = tested on: SW-620
NCI-H23 = tested on: NCI-H23
MCF7 = tested on: MCF7
MOLT-4 = tested on: MOLT-4
SN12C = tested on: SN12C
UO-31 = tested on: UO-31
UACC-62 = tested on: UACC-62
HCC 2998 = tested on: HCC 2998
MDA-MB-435 = tested on: MDA-MB-435
A549 = tested on: A549
OVCAR-3 = tested on: OVCAR-3
DU-145 = tested on: DU-145
M14 = tested on: M14
OVCAR-8 = tested on: OVCAR-8
Malme-3M = tested on: Malme-3M
NCI-H226 = tested on: NCI-H226
786-0 = tested on: 786-0

Measured: GI50

CCOC(=O)Nc1cc(NC(/C=N/NC(C)=O)C(=O)OCC)c(OC)cc1NC(C)=O (stereo not given)
inactive: SNB-19 > 100 µM | UACC-257 > 100 µM | RPMI-8226 > 100 µM | SW-620 > 100 µM | NCI-H23 > 100 µM | MCF7 > 100 µM | MOLT-4 > 100 µM | SN12C > 100 µM | UO-31 > 100 µM | UACC-62 > 100 µM | HCC 2998 > 100 µM | MDA-MB-435 > 100 µM | A549 > 100 µM | OVCAR-3 > 100 µM | DU-145 > 100 µM | M14 > 100 µM | OVCAR-8 > 100 µM | Malme-3M > 100 µM | NCI-H226 > 100 µM | 786-0 > 100 µM

CCCCc1ccc(Nc2nc3c(ncn3COCCBr)c(=O)[nH]2)cc1
inactive: SNB-19 > 100 µM | UACC-257 > 100 µM | RPMI-8226 > 100 µM | SW-620 > 100 µM | NCI-H23 > 100 µM | MCF7 > 100 µM | MOLT-4 > 100 µM | SN12C > 100 µM | UO-31 > 100 µM | UACC-62 > 100 µM | HCC 2998 > 100 µM | MDA-MB-435 > 100 µM | A549 > 100 µM | OVCAR-3 > 100 µM | DU-145 > 100 µM | M14 > 100 µM | OVCAR-8 > 100 µM | Malme-3M > 100 µM | NCI-H226 > 100 µM | 786-0 > 100 µM

NC(=O)c1ccc(NCC2=CC(=O)C=CC2=O)cc1
inactive: SNB-19 > 100 µM | UACC-257 21.1 µM | RPMI-8226 18.7 µM | SW-620 21.4 µM | NCI-H23 25.9 µM | MCF7 23 µM | MOLT-4 18.8 µM | SN12C 20.2 µM | UO-31 17.3 µM | UACC-62 20.4 µM | HCC 2998 35.8 µM | MDA-MB-435 17.2 µM | A549 > 100 µM | OVCAR-3 16.3 µM | DU-145 > 100 µM | M14 16.9 µM | OVCAR-8 20.4 µM | Malme-3M 19.5 µM | NCI-H226 > 100 µM | 786-0 19.6 µM

COc1cc(C2c3cc4c(cc3C(O)C3CCC(=O)N23)OCO4)cc(OC)c1OC (stereo not given)
inactive: SNB-19 29.9 µM | UACC-257 > 100 µM | RPMI-8226 27.1 µM | SW-620 36.6 µM | NCI-H23 53 µM | MCF7 16.5 µM | MOLT-4 32.2 µM | SN12C 58.7 µM | UO-31 15.7 µM | UACC-62 40.8 µM | HCC 2998 34.4 µM | MDA-MB-435 3.54 µM | A549 39.3 µM | OVCAR-3 31.6 µM | DU-145 51.8 µM | M14 38.9 µM | OVCAR-8 37.2 µM | Malme-3M > 100 µM | NCI-H226 37.5 µM | 786-0 52.5 µM

CCC1(CC)SCc2nc3ccccc3n21
inactive: SNB-19 53.2 µM | UACC-257 27.4 µM | RPMI-8226 24.9 µM | SW-620 58.6 µM | NCI-H23 27.7 µM | MCF7 30.2 µM | MOLT-4 22.8 µM | SN12C 49.8 µM | UO-31 35.4 µM | UACC-62 39.4 µM | HCC 2998 94.6 µM | MDA-MB-435 26 µM | A549 35.9 µM | OVCAR-3 32.1 µM | DU-145 50 µM | M14 26.5 µM | OVCAR-8 38.4 µM | Malme-3M 22.4 µM | NCI-H226 33.4 µM | 786-0 66.4 µM

CC(=O)N(CN1C(=O)CCC1C(=O)O)c1ccccc1 (stereo not given)
inactive: SNB-19 > 55.1 µM | UACC-257 > 54.2 µM | RPMI-8226 > 55.2 µM | SW-620 > 100 µM | NCI-H23 > 56.2 µM | MCF7 > 56.8 µM | MOLT-4 > 54.2 µM | SN12C > 57.7 µM | UO-31 > 56.9 µM | UACC-62 > 51.9 µM | HCC 2998 > 100 µM | MDA-MB-435 > 100 µM | A549 > 55.1 µM | OVCAR-3 > 54.5 µM | DU-145 > 61.4 µM | M14 > 54.5 µM | OVCAR-8 > 52.4 µM | Malme-3M 29.8 µM | NCI-H226 > 52.7 µM | 786-0 > 53.8 µM

CCN(CC)/C(SCc1ccccc1)=C(\C(Cl)=C(Cl)Cl)[N+](=O)[O-]
inactive: SNB-19 28.9 µM | UACC-257 17.5 µM | RPMI-8226 14.9 µM | SW-620 21.8 µM | NCI-H23 17.8 µM | MCF7 16.8 µM | MOLT-4 13.5 µM | SN12C 21.1 µM | UO-31 18.3 µM | UACC-62 3.87 µM | HCC 2998 21.2 µM | MDA-MB-435 17.7 µM | A549 16.6 µM | OVCAR-3 11.7 µM | DU-145 18 µM | M14 15.9 µM | OVCAR-8 16.9 µM | Malme-3M 10.2 µM | NCI-H226 18.9 µM | 786-0 16 µM

O=C(O)CC/C(=N\Nc1nsc2ccccc12)c1ccc(Cl)cc1
inactive: SNB-19 > 64 µM | UACC-257 25.5 µM | RPMI-8226 11 µM | SW-620 28.6 µM | NCI-H23 21.2 µM | MCF7 5.75 µM | MOLT-4 21.9 µM | SN12C 26 µM | UO-31 21.1 µM | UACC-62 19.8 µM | HCC 2998 17.5 µM | MDA-MB-435 27.5 µM | A549 > 49.1 µM | OVCAR-3 18.3 µM | DU-145 30.3 µM | M14 25.1 µM | OVCAR-8 43.5 µM | Malme-3M 45 µM | NCI-H226 > 100 µM | 786-0 17.8 µM

O=C/C=C/c1ccco1
inactive: SNB-19 > 100 µM | UACC-257 > 100 µM | RPMI-8226 > 100 µM | SW-620 > 100 µM | NCI-H23 > 100 µM | MCF7 > 100 µM | MOLT-4 > 100 µM | SN12C > 100 µM | UO-31 > 100 µM | UACC-62 > 100 µM | HCC 2998 > 100 µM | MDA-MB-435 > 100 µM | A549 > 100 µM | OVCAR-3 > 100 µM | DU-145 > 100 µM | M14 > 100 µM | OVCAR-8 > 100 µM | Malme-3M > 100 µM | NCI-H226 > 100 µM | 786-0 > 100 µM

COC(=O)NC(Cc1ccccc1)NC(=O)OC(C)(C)C (stereo not given)
inactive: SNB-19 > 100 µM | UACC-257 > 100 µM | RPMI-8226 > 100 µM | SW-620 > 100 µM | NCI-H23 > 100 µM | MCF7 > 100 µM | MOLT-4 > 100 µM | SN12C > 100 µM | UO-31 > 100 µM | UACC-62 > 100 µM | HCC 2998 > 100 µM | MDA-MB-435 > 100 µM | A549 > 100 µM | OVCAR-3 > 100 µM | DU-145 > 100 µM | M14 > 100 µM | OVCAR-8 > 100 µM | Malme-3M > 100 µM | NCI-H226 > 100 µM | 786-0 > 100 µM

COc1cccc(C(NC2=NCCC=N2)c2cc3c(cc2O)OCO3)c1O (stereo not given)
inactive: SNB-19 46.1 µM | UACC-257 34.4 µM | RPMI-8226 21.5 µM | SW-620 20.4 µM | NCI-H23 32.1 µM | MCF7 18 µM | MOLT-4 23.6 µM | SN12C 19.6 µM | UO-31 35.6 µM | UACC-62 23.3 µM | HCC 2998 19.9 µM | MDA-MB-435 29 µM | A549 41.1 µM | OVCAR-3 22 µM | DU-145 > 100 µM | M14 27.4 µM | OVCAR-8 10.4 µM | Malme-3M 38.1 µM | NCI-H226 43.5 µM | 786-0 12.4 µM

C=C(C)C(O)C(O)c1c(OC)ccc2ccc(=O)oc12 (stereo not given)
inactive: SNB-19 > 100 µM | UACC-257 > 100 µM | RPMI-8226 > 100 µM | SW-620 > 100 µM | NCI-H23 > 100 µM | MCF7 > 100 µM | MOLT-4 > 100 µM | SN12C > 100 µM | UO-31 > 100 µM | UACC-62 > 100 µM | HCC 2998 > 100 µM | MDA-MB-435 > 100 µM | A549 > 100 µM | OVCAR-3 > 100 µM | DU-145 > 100 µM | M14 > 100 µM | OVCAR-8 > 100 µM | Malme-3M > 100 µM | NCI-H226 > 100 µM | 786-0 > 100 µM

COc1ccc(-c2cc(=O)c3c(OC)c(OC)c(OC)c(OC)c3o2)cc1 [TANGERETIN]
inactive: SNB-19 > 100 µM | UACC-257 68.4 µM | RPMI-8226 67 µM | SW-620 67.8 µM | NCI-H23 43.3 µM | MCF7 > 100 µM | MOLT-4 64.6 µM | SN12C 65.2 µM | UO-31 37.5 µM | UACC-62 22.4 µM | HCC 2998 91 µM | MDA-MB-435 50.5 µM | A549 51.6 µM | OVCAR-3 42.4 µM | DU-145 85.5 µM | M14 76.9 µM | OVCAR-8 41.2 µM | Malme-3M 84.1 µM | NCI-H226 64.7 µM | 786-0 53.6 µM

Cn1nnc2c(C(N)=O)ncn2c1=O [TEMOZOLOMIDE]
inactive: SNB-19 > 100 µM | UACC-257 > 100 µM | RPMI-8226 > 100 µM | SW-620 > 100 µM | NCI-H23 > 100 µM | MCF7 > 100 µM | MOLT-4 83.6 µM | SN12C > 100 µM | UO-31 > 74 µM | UACC-62 > 100 µM | HCC 2998 > 100 µM | MDA-MB-435 > 100 µM | A549 > 100 µM | OVCAR-3 > 100 µM | DU-145 > 100 µM | M14 > 100 µM | OVCAR-8 > 100 µM | Malme-3M > 100 µM | NCI-H226 > 100 µM | 786-0 > 100 µM
